These results are taken from patent US9309213B2, “C-3 substituted bicyclooctane based HIV protease inhibitors” (Purdue Research Foundation, priority 2011, dated 2016).

Where “and” joins values, the source holds several entries; their conditions need not be identical. Equal values may be shown once. Read-outs that look alike come from different tables or passages of the source.

For one test, the target named is T1, HIV-1 protease (Human immunodeficiency virus type 1 group M subtype B, UniProt P04585).
T1 construct: The HIV aspartic protease plays a central role in the life cycle of the virus; It cleaves the virally encoded polyprotein
The experiment in a line: HIV-1 protease enzyme inhibitory assay (protocol of Toth and Marshall). It counts as biochemical. An excerpt:
Inhibitors were designed to make additional interactions in the S2-subsite of the protease, especially with the Gly48 backbone atoms in the flap region of the enzyme. All inhibitors in Table 1 were first evaluated in the enzyme inhibitory assay developed by Toth and Marshall (Toth and Marshall, Int. J. Pept. Protein Res. 1990, 36, 544-550). […] The 3-(S)-hydroxy Cp-THF ligand was also investigated in combination with other sulfonamide substituents.
All inhibitors were first tested for their enzyme inhibitory potency using the assay protocol developed by Toth and Marshall.

In another test the test system is HIV-1LAI. Nature of the test: In vitro antiviral assay, MT-2 cells exposed to HIV-1LAI, MTT assay. As to conditions: for loss of antiviral activity (higher IC50) compared to 22: relative to inhibitor 22. It counts as cell-based. Background: Formazan colour is commonly taken as a measure of viable cells.
Test [1] relates to HIV-1ERS104pre (wild type). Nature of the test: Antiviral assay in PHA-PBMs, inhibition of p24 Gag protein production, wild-type isolate. It counts as cell-based. As to conditions: Human immunodeficiency virus 1; Table 3; HIV-1ERS104pre (wild type), PHA-PBMs, p24 Gag; read-out: IC50 ± SDs.
Another test relates to HIV-1MDR/B. The experiment in a line: microbe, parasite or virus in culture. The format is cell-based.
The next test concerns HIV-1MDR/C. Nature of the test: microbe, parasite or virus in culture. The format is cell-based.
For another test, the system named is HIV-1MDR/G. Nature of the test: microbe, parasite or virus in culture. It counts as cell-based.
A further test concerns HIV-1MDR/TM. Nature of the test: microbe, parasite or virus in culture. The format is cell-based.
Setting [2] is: Human immunodeficiency virus 1, MT2, Table 1, MT-2 cells, 100 TCID50s of HIV-1LAI, MTT assay, means of at least two experiments.
Setting [3] is: Human immunodeficiency virus 1, MT2, read-out: ID50, Table 2, antiviral activity.
The mark [4] stands for this setting: Human immunodeficiency virus 1, MT2, read-out: antiviral IC50.
[5] abbreviates: Human immunodeficiency virus 1, read-out: IC50 ± SDs.
Where [6] appears, read: read-out: Ki / enzyme inhibitory potency.

`CC(C)CN(C[C@@H](O)[C@H](Cc1ccccc1)NC(=O)O[C@@H]1C[C@@H]2[C@H](O)CO[C@@H]2C1)S(=O)(=O)c1ccc(CO)cc1` [Inhibitor 23, (3S,3aR,5R,6aR)-3-Hydroxyhexahydro-2H-cyclopenta[b]furan-5-yl {(2S,3R)-3-Hydroxy-4-[4-(hydroxymethyl)-N-iso-butylphenylsulfonamido]-1-phenylbutan-2-yl}carbamate]: on HIV-1 protease (Table 1, read-out: Ki), the Ki was determined as 0.06 nM. Besides, the IC50 with HIV-1LAI (setting [2]) was 19 nM. The “loss of antiviral activity (higher IC50) compared to 22” value (“loss … compared to 22” for short) in the test on HIV-1LAI came out at 4 fold.
`CON[C@@H]1CO[C@@H]2C[C@H](OC(=O)N[C@@H](Cc3ccccc3)[C@H](O)CN(CC(C)C)S(=O)(=O)c3ccc(OC)cc3)C[C@H]12`: the Ki at HIV-1 protease (Table 2, read-out: Ki) is 0.088 nM. In addition, the IC50 in the test on HIV-1LAI (setting [3]) was determined as 81.5 nM.
On to `COc1ccc(S(=O)(=O)N(CC(C)C)C[C@@H](O)[C@H](Cc2ccccc2)NC(=O)O[C@@H]2C[C@@H]3[C@H](OC)CO[C@@H]3C2)cc1` [Inhibitor 19b, (3S,3aS,5R,6aR)-3-Methoxyhexahydro-2H-cyclopenta[b]furan-5-yl [(2S,3R)-3-Hydroxy-4-(N-iso-butyl-4-methoxyphenylsulfonamido)-1-phenylbutan-2-yl]carbamate], for which the Ki came to 0.39 nM on HIV-1 protease (Table 1, read-out: Ki) and 0.95 nM on HIV-1 protease (read-out: Ki). Further, the IC50 in the test with HIV-1LAI (setting [2]) and with HIV-1LAI (setting [4]) was 37 nM each time. The “loss … compared to 22” value with HIV-1LAI is ~5 fold and ~7 fold.
`COc1ccc(S(=O)(=O)N(CC(C)C)C[C@@H](O)[C@H](Cc2ccccc2)NC(=O)O[C@@H]2C[C@@H]3C(=O)CO[C@@H]3C2)cc1` [Inhibitor 19a, (3aS,5R,6aR)-3-oxohexahydro-2H-cyclopenta[b]furan-5-yl (2S,3R)-3-hydroxy-4-(N-isobutyl-4-methoxyphenylsulfonamido)-1-phenylbutan-2-ylcarbamate]: the Ki at HIV-1 protease (Table 1, read-out: Ki) was 0.95 nM. In the test with HIV-1LAI (Human immunodeficiency virus 1, MT2, Table 1, MT-2 cells, 100 TCID50s of HIV-1LAI, MTT assay, means of at least two experiments, read-out: IC50), the IC50 came to 14 nM.
Turning to `COc1ccc(S(=O)(=O)N(CC(C)C)C[C@@H](O)[C@H](Cc2ccccc2)NC(=O)O[C@@H]2C[C@@H]3[C@@H](NS(C)(=O)=O)CO[C@@H]3C2)cc1` [Inhibitor 19j, (3R,3aR,5R,6aR)-3-(methylsulfonamido)hexahydro-2H-cyclopenta[b]furan-5-yl ((2S,3R)-3-hydroxy-4-(N-isobutyl-4-methoxyphenylsulfonamido)-1-phenylbutan-2-yl) carbamate], at HIV-1 protease (Table 2, read-out: Ki), the Ki is 0.18 nM. Besides, in the test with HIV-1LAI (setting [3]), the IC50 is 50 nM.
Turning to `COc1ccc(S(=O)(=O)N(CC(C)C)C[C@@H](O)[C@H](Cc2ccccc2)NC(=O)O[C@@H]2C[C@H]3[C@@H](C2)OC[C@H]3OC(=O)N(C)C)cc1`, the Ki at HIV-1 protease (Table 2, read-out: Ki) worked out at 0.02 nM. For the same compound, the IC50 with HIV-1LAI (setting [3]) came to 4.7 nM.
As to `COC(=O)N[C@@H]1CO[C@@H]2C[C@H](OC(=O)N[C@@H](Cc3ccccc3)[C@H](O)CN(CC(C)C)S(=O)(=O)c3ccc(OC)cc3)C[C@H]12` [drawing 23], the IC50 in the test with HIV-1LAI (setting [3]) is 1.6 nM.
For `CC(C)CN(C[C@@H](O)[C@H](Cc1ccccc1)NC(=O)O[C@@H]1C[C@@H]2[C@H](O)CO[C@@H]2C1)S(=O)(=O)c1ccc(N)cc1` [drawing 10], the Ki at HIV-1 protease (Table 1, read-out: Ki) amounted to 0.079 nM. In the test with HIV-1LAI (setting [2]), this compound displayed an IC50 of 25 nM.
With `COC(=O)N[C@H]1CO[C@@H]2C[C@H](OC(=O)N[C@@H](Cc3ccccc3)[C@H](O)CN(CC(C)C)S(=O)(=O)c3ccc(OC)cc3)C[C@H]12` [drawing 24], at HIV-1 protease (Table 2, read-out: Ki), the Ki came out at 0.004 nM. For the same compound, in the test on HIV-1LAI (setting [3]), the IC50 worked out at 4.6 nM.
For `COc1ccc(S(=O)(=O)N(CC(C)C)C[C@@H](O)[C@H](Cc2ccccc2)NC(=O)O[C@@H]2C[C@@H]3[C@@H](C)CO[C@@H]3C2)cc1` [Inhibitor 19f, (3R,3aR,5R,6aR)-3-Methylhexahydro-2H-cyclopenta[b]furan-5-yl [(2S,3R)-3-Hydroxy-4-(N-isobutyl-4-methoxyphenylsulfonamido)-1-phenylbutan-2-yl]carbamate], on HIV-1 protease (Table 1, read-out: Ki), the Ki amounted to 0.017 nM.
As to `COc1ccc(S(=O)(=O)N(CC(C)C)C[C@@H](O)[C@H](Cc2ccccc2)NC(=O)O[C@@H]2C[C@@H]3[C@H](C)CO[C@@H]3C2)cc1` [Inhibitor 19e, (3S,3aR,5R,6aR)-3-Methylhexahydro-2H-cyclopenta[b]furan-5-yl [(2S,3R)-3-Hydroxy-4-(N-iso-butyl-4-methoxyphenylsulfonamido)-1-phenylbutan-2-yl]carbamate], the Ki at HIV-1 protease (Table 1, read-out: Ki) was 0.02 nM and 0.16 nM. In the test on HIV-1LAI (setting [2]), the IC50 amounted to 25 nM. In addition, the “loss … compared to 22” value in the test with HIV-1LAI is listed as 5 fold.
Take `CC(C)CN(C[C@@H](O)[C@H](Cc1ccccc1)NC(=O)O[C@H]1CCOC1)S(=O)(=O)c1ccc(N)cc1` [APV, amprenavir, reference compound]: the IC50 in test [1] turned out to be 30 ± 6 nM; in the test with HIV-1MDR/B (setting [5]), 930 ± 280 nM; in the test with HIV-1MDR/C (setting [5]), 260 ± 30 nM; in the test with HIV-1MDR/G (setting [5]), 380 ± 30 nM; in the test with HIV-1MDR/TM (setting [5]) it was 190 ± 60 nM. The “fold change of IC50” value is recorded as 31 in the test with HIV-1MDR/B (Table 3, HIV-1MDR/B compared to wild-type HIV-1ERS104pre); 9 with HIV-1MDR/C (Table 3, HIV-1MDR/C compared to wild-type HIV-1ERS104pre); 12 with HIV-1MDR/G (Table 3, HIV-1MDR/G compared to wild-type HIV-1ERS104pre); 6 with HIV-1MDR/TM (Table 3, HIV-1MDR/TM compared to wild-type HIV-1ERS104pre).
For the compound `COc1ccc(S(=O)(=O)N(CC(C)C)C[C@@H](O)[C@H](Cc2ccccc2)NC(=O)O[C@@H]2C[C@@H]3[C@H](NC(C)=O)CO[C@@H]3C2)cc1` [Inhibitor 19g, (3S,3aR,5R,6aR)-3-acetamidohexahydro-2H-cyclopenta[b]furan-5-yl (2S,3R)-3-hydroxy-4-(N-isobutyl-4-methoxyphenylsulfonamido)-1-phenylbutan-2-yl-carbamate], the Ki on HIV-1 protease (setting [6]) is 0.007 nM. The IC50 in the test with HIV-1LAI (setting [3]) came to 21.5 nM; in the test on HIV-1LAI (setting [4]), 25 nM.
As to `COc1ccc(S(=O)(=O)N(CC(C)C)C[C@@H](O)[C@H](Cc2ccccc2)NC(=O)O[C@@H]2C[C@@H]3[C@H](NS(C)(=O)=O)CO[C@@H]3C2)cc1` [Inhibitor 19i, (3S,3aR,5R,6aR)-3-(methylsulfonamido)hexahydro-2H-cyclopenta[b]furan-5-yl ((2S,3R)-3-hydroxy-4-(N-isobutyl-4-methoxyphenylsulfonamido)-1-phenylbutan-2-yl)-carbamate], the Ki at HIV-1 protease (Table 2, read-out: Ki) is 0.017 nM and 0.032 nM. Further, the IC50 with HIV-1LAI (setting [3]) turned out to be 28 nM.
`COc1ccc(S(=O)(=O)N(CC(C)C)C[C@@H](O)[C@H](Cc2ccccc2)NC(=O)O[C@@H]2C[C@@H]3[C@@H](NC(C)=O)CO[C@@H]3C2)cc1` [Inhibitor 19h, (3′R,3′aR,5′R,6′aR)-3-acetamidohexahydro-2H-cyclopenta[b]furan-5-yl (2S,3R)-3-hydroxy-4-(N-isobutyl-4-methoxyphenylsulfonamido)-1-phenylbutan-2-yl-carbamate]: the Ki was found to be 0.0075 nM on HIV-1 protease (Table 2, read-out: Ki) and 0.007 nM on HIV-1 protease (setting [6]). In addition, the IC50 in the test with HIV-1LAI (setting [3]) and in the test on HIV-1LAI (setting [4]) was 31 nM throughout.
The compound `CC(C)(C)NC(=O)[C@@H]1C[C@@H]2CCCC[C@@H]2CN1C[C@@H](O)[C@H](Cc1ccccc1)NC(=O)[C@H](CC(N)=O)NC(=O)c1ccc2ccccc2n1` [SQV, saquinavir, reference compound] returned an IC50 with HIV-1LAI (setting [2]) of 15 nM.
On to `CC(C)CN(C[C@@H](O)[C@H](Cc1ccccc1)NC(=O)O[C@@H]1C[C@@H]2[C@@H](O)CO[C@@H]2C1)S(=O)(=O)c1ccc(N)cc1` [Inhibitor 26, (3R,3aR,5R,6aR)-3-Hydroxyhexahydro-2H-cyclopenta[b]furan-5-yl [(2S,3R)-4-(4-Amino-N-iso-butylphenylsulfonamido)-3-hydroxy-1-phenylbutan-2-yl]-carbamate], for which the Ki at HIV-1 protease (Table 1, read-out: Ki) turned out to be 0.006 nM. The IC50 with HIV-1LAI (setting [2]) is 36 nM.
Regarding `COc1ccc(S(=O)(=O)N(CC(C)C)C[C@@H](O)[C@H](Cc2ccccc2)NC(=O)O[C@@H]2C[C@@H]3[C@H](N(C)C)CO[C@@H]3C2)cc1`, the Ki on HIV-1 protease (Table 2, read-out: Ki) was determined as 12.7 nM.
As to “((3R,3aS,5R,6aR)-3-Methoxyhexahydro-2H-cyclopenta[b]furan-5-yl [(2S,3R)-3-Hydroxy-4-(N-iso-butyl-4-methoxyphenylsulfonamido)-1-phenylbutan-2-yl]-carbamate [Inhibitor 19d]”, at HIV-1 protease (setting [6]), the Ki came out at 0.006 nM. Further, in the test with HIV-1LAI (Table 1, MT-2 cells, 100 TCID50s of HIV-1LAI, MTT assay, means of at least two experiments, read-out: IC50), the IC50 was found to be 3.4 nM.
With `CC(C)CN(C[C@@H](O)[C@H](Cc1ccccc1)NC(=O)O[C@@H]1C[C@@H]2[C@H](O)CO[C@@H]2C1)S(=O)(=O)c1ccc(N)cc1` [Inhibitor 123, (3S,3aR,5R,6aR)-3-Hydroxyhexahydro-2H-cyclopenta[b]furan-5-yl [(2S,3R)-4-(4-Amino-N-isobutylphenylsulfonamido)-3-hydroxy-1-phenylbutan-2-yl]carbamate], in the test with HIV-1LAI, the “loss … compared to 22” value is listed as 3 fold.
